Measured values from US10688113B2 (priority 2015, dated 2020).

Experiments:
[1] = tested on: corneal mechanical sensitivity (allodynia); assay: Corneal mechanical sensitivity (allodynia), Von Frey filaments, trephine-injured cornea plus capsaicin; type: in vivo, male C57BL/6 mice; conditions: mice, 10 mM topical twice-daily for 5 days, capsaicin 100 μM, vs 1×PBS
Procedure: (§1) During this test, de-epithelialization of the corneal epithelium of the left eye of the mouse is carried out using a 1.5 mm diameter trephine. This surgery is carried out under a surgical microscope. This procedure lasts at most 3 minutes per animal. The depth and surface area of corneal de-epithelialization are standardized and then evaluated by a slit-lamp examination. The advantage of this surgical tool is standardization of the injury. The 8-week-old male C57BL/6 mice thus treated receive a twice-daily treatment for 5 days of the compound of formula I or PBS before the application of capsaicin.
Additional pain is induced by capsaicin (100 μM). Corneal mechanical sensitivity (allodynia) was measured using Von Frey filaments, 5 days after treatment, on mice treated with compound 1 (10 mM), with compound 2 (10 mM) or, for the control group, with 1×PBS (n=5 animals per group). The results obtained are presented in FIG. 6 (y-axis: weight of the Von Frey filament in grams). The histogram on the left (black) represents the response of mice treated with PBS, the histogram in the middle represents the response of mice treated with compound 1 and the histogram on the right represents the response of mice treated with compound 2.

[2] = tested on: capsaicin-induced ocular pain (33 mM); assay: Capsaicin-induced ocular pain, acute treatment (single instillation 15 min before capsaicin); type: in vivo, New Zealand white rabbits; conditions: rabbit, single instillation of 10 mM, 15 min before capsaicin 33 mM; compared with capsazepine 5 mM
Procedure: In order to study the pharmacological activity of the present invention in the case of ocular pain, the compounds of formula (I) were tested using the model of capsaicin-induced ocular pain. In this model, previously used in the literature (Gonzalez et al. (1993) Invest. Ophthalmol. Vis. Sci., 34(12), 3329-3335), in adult rabbits, the number of lid-squeezing movements, the degree of palpebral opening, miotic response and conjunctival vasodilation evoked by a bilateral instillation of 30 μL of capsaicin (33 mM) were measured at different times after administration of the drug. To that end, the responses to this test in eyes pre-treated with various calcium antagonists (diltiazem, verapamil or nifedipine) were compared with those that had received only vehicle.
The procedure and the timing were as follows:
Evaluation of corneal pain by observing conjunctival hyperaemia after pain induction (a single instillation of 1% capsaicin (33 mM) in the right eye) in albino rabbits. Pre-treatment with the compound to be tested, 15 min before capsaicin instillation.

[3] = tested on: mechanical allodynia induced by 0.2% BAC; assay: Keratitis induced by chronic instillation of 0.2% benzalkonium chloride (BAC), Von Frey filaments; type: in vivo, male C57BL/6 mice; conditions: mice, 0.2% BAC for 6 days then 10 mM twice-daily for 5 days; vs 1×PBS
Source text: Chronic instillation of 0.2% benzalkonium chloride induces chronic inflammation of the cornea with generation of ocular pain (Launay et al. (2016) Neurobiol. Dis., 88 16-28). This model was used as a model of chemical keratitis.
Study of corneal sensitivity in mice treated twice-daily with compound 2 for 5 days first treated with 0.2% BAC for 6 days. The corneal mechanical sensitivity of male C57BL/6 mice, treated with 0.2% BAC for 6 days, then twice-daily with compound 2 for 5 days, was evaluated at various times using Von Frey filaments, compared with a control group receiving twice-daily 1×PBS (n=10 animals per group). The use of Von Frey filaments (applied to the centre of the cornea of a conscious animal) is perfectly feasible for measuring corneal mechanical allodynia in mice. In the context of dry eye, the technique produces mechanical allodynia in the patient: the simple fact of closing the eyelid induces a painful sensation. Lastly, this behavioural test is most like the one used in human clinical practice (Cochet-Bonnet) to measure corneal mechanical sensitivity.
The results obtained are presented in FIG. 7 (y-axis: weight of the Von Frey filament in grams). The histogram on the left represents the response of mice treated with PBS, while the histogram on the right represents the response of mice treated with compound 2.

[4] = tested on: LPS-induced bacterial keratitis; assay: LPS-induced inflammation model (corneal scratch, LPS 50 μg) followed by capsaicin instillation; type: in vivo; conditions: mice, LPS 50 μg days 1 and 4, 10 mM twice-daily for 5 days, capsaicin 100 μM on day 5, vs PBS
Procedure: Bacterial lipopolysaccharide (LPS, endotoxin) is a potent stimulator of inflammatory responses and contributes to microbial keratitis and to corneal ulcers (Khatri et al. 2002 Invest. Ophthal. Vis. Sci., 43 2278-2284).
Effect of compound 2 in a model of LPS-induced inflammation (50 μg). A corneal epithelial injury (scratch) is made with a trephine (1.5 mm diameter) in mice, followed by topical treatment with LPS (50 μg, two administrations on days 1 and 4) then twice-daily chronic treatment for 5 days with 1×PBS (control group) or with compound 2 (10 mM) (n=6 animals per group), followed by capsaicin instillation (100 μM) on day 5. The results obtained are presented in FIG. 8 (y-axis: palpebral closure time in seconds). The histogram on the left represents the response of mice treated with PBS, while the histogram on the right represents the response of mice treated with compound 2.

[5] = tested on: capsaicin-induced ocular pain (100 μM); assay: Capsaicin test (100 μM) after chronic twice-daily treatment on trephine-injured cornea; type: in vivo, male C57BL/6 mice; conditions: mice, trephine corneal injury, 10 mM topical twice-daily for 4 days, capsaicin 100 μM 15 min after last instillation; vs PBS
Procedure: The compounds of formula I of the present invention were also tested, in 8-week-old male C57BL/6 mice (JANVIER LABS), using a capsaicin test (100 μM) after twice-daily treatment for 5 days of the compound of formula I on cornea injured beforehand (with a 1.5 mm diameter trephine).
Analgesic effect of compound 2 in the model of capsaicin-induced ocular pain (100 μM). A corneal epithelial injury was made on the right cornea of male C57BL/6 mice (JANVIER LABS) using a 1.5 mm diameter trephine. Once the animals were operated on, a twice-daily topical treatment, for 4 days, is carried out with 1×PBS (5 animals per group) or with 10 mM compound 2 (5 animals per group). On day 4, 15 minutes after the last instillation, 100 μM capsaicin is instilled and the behavioural analysis is performed. The results obtained corresponding to the trephine injury alone before capsaicin are shown in FIG. 5 (y-axis: palpebral closure time in seconds).
as §1, with “The 8-week-old male C57BL/6 mice thus treated receive a twice-daily treatment for 5 days of the compound of formula I or PBS before the application of capsaicin.” left out

[6] = tested on: capsaicin-induced ocular pain; conditions: rabbits, 1 to 28 mM administered 15 minutes before application of capsaicin; cited from earlier work
[7] = tested on: contractile responses to capsaicin; conditions: morphine 5×100 μM; cited from earlier work
[8] = tested on: capsaicin-induced blinking; conditions: cited from earlier work

## C[C@H](NC(=O)[C@H](Cc1ccc(-c2ccccc2)cc1)CP(=O)([O-])[C@H](C)N)C(=O)[O-].[Na+].[Na+] [compound 1]
[1]
  mechanical sensitivity measured with Von Frey filaments: significant decrease
[2]
  analgesic effect on conjunctival hyperaemia following pain induction by capsaicin: superior to the reference product, capsazepine
  analgesic effect on palpebral opening following pain induction by capsaicin: superior to the reference product, capsazepine

## CC(OC(=O)N[C@@H](C)P(=O)([O-])C[C@@H](Cc1ccc(-c2ccccc2)cc1)C(=O)N[C@@H](C)C(=O)[O-])OC(=O)C(C)C.[Na+].[Na+] (stereo partly shown) [compound 2]
[1]
  mechanical sensitivity measured with Von Frey filaments: significant decrease
[3]
  mechanical allodynia induced by 0.2% BAC (Von Frey filaments): significantly reduced (higher sensitivity threshold)
[2]
  analgesic effect on conjunctival hyperaemia following pain induction by capsaicin: superior to the reference product, capsazepine
  analgesic effect on palpebral opening following pain induction by capsaicin: superior to the reference product, capsazepine
[4]
  analgesic effect (cumulative palpebral closure time) in LPS-induced keratitis: very significant analgesic effect (shorter cumulative palpebral closure time)
[5]
  analgesic effect (cumulative palpebral closure time) in the capsaicin test: very significant analgesic effect (shorter cumulative palpebral closure time)

## COc1ccc([C@@H]2Sc3ccccc3N(CCN(C)C)C(=O)[C@@H]2OC(C)=O)cc1 [diltiazem]
[6]
  capsaicin-induced scratching movements, conjunctival hyperaemia, eye closure and elevated aqueous protein concentration: significantly decreased

## CN1CC[C@]23c4c5ccc(O)c4O[C@H]2[C@@H](O)C=C[C@H]3[C@H]1C5 [morphine]
[7]
  contractile responses to capsaicin: partially inhibited
[8]; applied to healthy, non-inflamed rat cornea
  blinking, healthy non-inflamed rat cornea: no effect on blinking
[8]; rats, topical application of a drop, 5 μM
  capsaicin-induced blinking: attenuates capsaicin-induced blinking in a concentration-dependent manner
